Reference: the OligoGym collection
After the bases stand the sugars from the 5' end (letter, count) and the backbone: PS all phosphorothioate, else s phosphorothioate and o phosphodiester by linkage. Methylation of C is not given here. l = locked nucleic acid (LNA); d = 2'-deoxy (DNA)

Molecular target: SNHG14
Conditions: ASO
[1] = Mouse Primary Neuronal Cell, 0.005 µM

Sequence	target mRNA inhibition (Human Neuronal Cell, 0.2 µM)	target mRNA inhibition (Human Neuronal Cell, 1 µM)	target mRNA inhibition (Human Neuronal Cell, 7.5 µM)	other results
ACACATTATATTTAAACTA (sugars l3 d13 l3, PS)	8%	-2%	–	–
ACATCTCATACTTGCTT (sugars l2 d11 l4, PS)	-4%	7%	–	target mRNA inhibition (Human Neuronal Cell, 5 µM): 9%; target mRNA inhibition [1]: 96%
ACATGTCCCTTTATATT (sugars l2 d13 l2, PS)	-12%	8%	–	target mRNA inhibition (Human Neuronal Cell, 5 µM): 21%; target mRNA inhibition [1]: 85.2%
ACATGTCCCTTTATATT (sugars l4 d11 l2, PS)	-15%	-4%	–	target mRNA inhibition (Human Neuronal Cell, 5 µM): 9%; target mRNA inhibition [1]: 83.7%
ACCAATTATACTTACAA (sugars l3 d11 l3, PS)	21%	52%	–	–
ACCACCTAAGACCTCA (sugars l2 d11 l3, PS)	45%	44%	–	–
ACCACTGATTTCCTTA (sugars l2 d10 l4, PS)	50%	63%	–	–
ACCCATTTCTAACATT (sugars l4 d10 l2, PS)	29%	40%	–	–
ACCTACATCTCATACT (sugars l2 d12 l2, PS)	-16%	8%	–	target mRNA inhibition (Human Neuronal Cell, 5 µM): 0%; target mRNA inhibition [1]: 85.7%
ACCTACATCTCATACTT (sugars l2 d11 l4, PS)	–	–	–	target mRNA inhibition [1]: 94.2%
ACCTGTAATACTTCTT (sugars l4 d10 l2, PS)	48%	46%	–	–
ACTCCTAAGAATTACA (sugars l4 d10 l2, PS)	34%	34%	–	–
ACTCTCACTGTAACTT (sugars l3 d10 l3, PS)	36%	44%	–	–
ACTCTGCAATACACCAA (sugars l1 d1 l2 d10 l3, PS)	–	–	63%	–
ACTCTGCAATACACCAA (sugars ldddldddddddldlll, PS)	–	–	66%	–
ACTGATTTCCTTAAAC (sugars l4 d10 l2, PS)	24%	52%	–	–
ACTGTTTATACCCTTTC (sugars l1 d2 l1 d9 l4, PS)	–	–	45%	–
ACTGTTTATACCCTTTC (sugars l2 d10 l1 d2 l2, PS)	–	–	60%	–
ACTGTTTATACCCTTTC (sugars ldddlddddddddldll, PS)	–	–	55%	–
ACTGTTTATACCCTTTCC (sugars l1 d11 l1 d3 l2, PS)	–	–	56%	–
ACTTTACTGCCATAATC (sugars l3 d11 l3, PS)	40%	33%	–	–
AGATCATTCTCAACAATTA (sugars ldlddldddddddllldll, PS)	–	–	50%	–

Sequence	target mRNA inhibition (Human Neuronal Cell, 0.2 µM)	target mRNA inhibition (Human Neuronal Cell, 1 µM)	target mRNA inhibition (Human Neuronal Cell, 7.5 µM)	other results
AGCAACATTATTAACCAC (sugars l2 d1 l1 d9 l5, PS)	–	–	61%	–
AGCAACATTATTAACCAC (sugars ldllldddddddlldlll, PS)	–	–	26%	–
AGCAACATTATTAACCACC (sugars l2 d1 l2 d12 l2, PS)	–	–	63%	–
AGCAACATTATTAACCACC (sugars lddddlddddddlldddll, PS)	–	–	45%	–
AGCACATATACCATCA (sugars l4 d10 l2, PS)	51%	56%	–	–
AGCATTCAACCCTAATC (sugars l4 d11 l2, PS)	52%	50%	–	–
AGCTCCATATTTAAAT (sugars l4 d10 l2, PS)	10%	-9%	–	–
AGTTCTACTATACTTTC (sugars l3 d11 l3, PS)	–	–	57%	–
AGTTCTACTATACTTTCC (sugars l1 d4 l1 d10 l2, PS)	–	–	49%	–
AGTTCTACTATACTTTCC (sugars l1 d15 l2, PS)	–	–	11%	–
ATAAGCTTACCTCATA (sugars l2 d10 l4, PS)	62%	68%	–	–
ATAATCCCATACATCTA (sugars l3 d11 l3, PS)	60%	69%	–	–
ATACACAGCACATATT (sugars l2 d10 l4, PS)	29%	43%	–	–
ATATAAGCTTACCTCA (sugars l4 d10 l2, PS)	56%	68%	–	–
ATATTGATTCAATTCCC (sugars l1 d1 l3 d10 l2, PS)	–	–	70%	–
ATATTGATTCAATTCCC (sugars l1 d2 l1 d7 l6, PS)	–	–	51%	–
ATATTGATTCAATTCCC (sugars l1 d3 l1 d8 l4, PS)	–	–	67%	–
ATCATCAGTTACATCA (sugars l4 d10 l2, PS)	62%	63%	–	–
ATCATTCTCAACAATTA (sugars l4 d7 l1 d1 l4, PS)	–	–	53%	–
ATCATTCTCAACAATTAA (sugars l4 d8 l6, PS)	–	–	44%	–
ATCATTCTCAACAATTAAA (sugars l4 d1 l1 d8 l5, PS)	–	–	49%	–
ATCATTTCATATTACTA (sugars l3 d11 l3, PS)	43%	56%	–	–

Sequence	target mRNA inhibition (Human Neuronal Cell, 0.2 µM)	target mRNA inhibition (Human Neuronal Cell, 1 µM)	target mRNA inhibition (Human Neuronal Cell, 7.5 µM)	other results
ATCCTGTTAATACCAT (sugars l2 d10 l4, PS)	45%	39%	–	–
ATCTCATGACCACCTAA (sugars l1 d12 l4, PS)	–	–	48%	–
ATCTCATGACCACCTAA (sugars ldlllddddddddldll, PS)	–	–	66%	–
ATCTGAATCAAACCTT (sugars l2 d10 l4, PS)	45%	45%	–	–
ATCTTTCCATTTATTTCC (sugars l3 d12 l3, PS)	52%	56%	–	–
ATCTTTCCATTTATTTCCA (sugars ldddlddddddddldddll, PS)	–	–	42%	–
ATCTTTCCATTTATTTCCAT (sugars lddlddddddddddddldll, PS)	–	–	40%	–
ATGCTTCTAACTAACA (sugars l4 d10 l2, PS)	25%	46%	–	–
ATTCAACCCTAATCAC (sugars l2 d10 l4, PS)	16%	26%	–	–
ATTGATTCAATTCCCTT (sugars l1 d1 l2 d9 l4, PS)	–	–	67%	–
ATTGATTCAATTCCCTT (sugars l3 d10 l1 d1 l2, PS)	–	–	70%	–
ATTGATTCAATTCCCTT (sugars ldddldddddddlldll, PS)	–	–	57%	–
ATTGATTCAATTCCCTT (sugars lddldddddddlldlll, PS)	–	–	61%	–
ATTGATTCAATTCCCTT (sugars lddlldddddddlldll, PS)	–	–	59%	–
ATTTAAATTTCCAAACATT (sugars l2 d13 l4, PS)	11%	-17%	–	–
ATTTACACTTAATTATACTT (sugars ldlllldddddddldlddll, PS)	–	–	45%	–
ATTTACACTTAATTATACTT (sugars llddlllddddddlddllll, PS)	–	–	38%	–
ATTTCATTAAGTCACC (sugars l2 d10 l4, PS)	46%	59%	–	–
ATTTTTTTCTTACTATCTTC (sugars ldlllddddddddlddddll, PS)	–	–	56%	–
CAAAGATCATTCTCAACA (sugars l1 d1 l2 d8 l6, PS)	–	–	58%	–
CAAAGATCATTCTCAACA (sugars lllldldddddddlddll, PS)	–	–	63%	–
CAAATACAGATTATCC (sugars l2 d10 l4, PS)	49%	59%	–	–

Sequence	target mRNA inhibition (Human Neuronal Cell, 0.2 µM)	target mRNA inhibition (Human Neuronal Cell, 1 µM)	target mRNA inhibition (Human Neuronal Cell, 7.5 µM)	other results
CAACATTATTAACCACCTT (sugars l3 d1 l1 d11 l3, PS)	–	–	61%	–
CAACATTATTAACCACCTTA (sugars l1 d2 l2 d13 l2, PS)	–	–	47%	–
CAACATTATTAACCACCTTA (sugars l4 d10 l1 d2 l3, PS)	–	–	55%	–
CAACATTATTAACCACCTTA (sugars lddddllddddddddlddll, PS)	–	–	47%	–
CACATTATATTTAAACTAT (sugars l2 d13 l4, PS)	6%	14%	–	–
CACTGATTTCCTTAAAC (sugars l4 d11 l2, PS)	40%	43%	–	–
CATCTGCTACATATTC (sugars l4 d10 l2, PS)	49%	58%	–	–
CATGACACTTACATAA (sugars l3 d10 l3, PS)	31%	45%	–	–
CATTCAACCCTAATCA (sugars l3 d10 l3, PS)	26%	38%	–	–
CATTCTATCTGCCAAA (sugars l2 d10 l4, PS)	55%	64%	–	–
CCAACATAGATCCTCT (sugars l2 d10 l4, PS)	55%	67%	–	–
CCACCTTAAGTAACAT (sugars l3 d10 l3, PS)	30%	43%	–	–
CCATGCTACATAAACC (sugars l4 d10 l2, PS)	36%	50%	–	–
CCATTATTTCTTAAATA (sugars l4 d11 l2, PS)	-8%	8%	–	–
CCATTTATTTCCATTTATTT (sugars ldddldddddddddldldll, PS)	–	–	56%	–
CCCTCAAAGTAATTTC (sugars l4 d10 l2, PS)	21%	20%	–	–
CCTAAGCTCCATATTT (sugars l4 d10 l2, PS)	39%	45%	–	–
CCTACATCTCATACTT (sugars l3 d10 l3, PS)	-11%	3%	–	target mRNA inhibition (Human Neuronal Cell, 5 µM): 13%; target mRNA inhibition [1]: 93.4%
CCTACATCTCATACTTG (sugars l2 d13 l2, PS)	9%	10%	–	target mRNA inhibition (Human Neuronal Cell, 5 µM): 36%; target mRNA inhibition [1]: 79.8%
CCTACATCTCATACTTG (sugars l3 d11 l3, PS)	–	–	–	target mRNA inhibition [1]: 96%
